In US8217000B2, “Method for elevating prolactin in mammals” (Cara Therapeutics, Inc., priority 2006, dated 2012):
Where a name gives a salt, the structure may show the parent alone. Non-standard residues stand in square brackets, D forms with d. Residues, ends and D or L forms follow the SMILES beside them. *: point of attachment. NH(4-picolyl) = c1cc(CN*)ccn1; dNle = CCCC[C@@H](N)C(=O)O

Test: Plasma pharmacokinetics of CR665 after single IV infusion in human subjects
Conditions: for AUC(0-inf) / clearance / Cmax / MRT / Vd / half-life / Tmax / AUC(0-t): male, human, plasma, iv; for AUC(0-inf): AUC0-∞; for clearance: CL; for MRT: MRTint; for half-life: t1/2, males; for Tmax: median; for AUC(0-t): AUC0-t; for MRTint, geometric least squares mean: Parts A & B
Procedure: This clinical study was conducted as a double blind, placebo controlled, ascending single intravenous (IV) dose, sequential group study. This study was double blind and placebo controlled in order to avoid bias in the collection and evaluation of data during its conduct. […] In each group, subjects received CR665 or placebo. Doses were administered as a single constant rate IV infusion over 1 hour (part A) or 5 minutes (part B) on the morning of Day 1. Doses were administered in an escalating manner following satisfactory review of the safety data and pharmacokinetic data from the lower dose levels. There was a minimum of 6 days between dose escalations to allow sufficient time for an adequate safety review.
Plasma and urine samples for the analysis of CR665 and N oxide metabolite were prepared by solid phase extraction. The centrifuged eluates were quantified by liquid chromatography with tandem mass spectrometric detection (LC MS/MS). The lower limit of quantification was 1 ng/mL.
For pharmacokinetic assessments, blood samples (1×3 mL) were taken from the contralateral forearm vein(s) at the following times: Pre-dose, 15 minutes, 30 minutes, 45 minutes, 1 hour (immediately prior to the end of infusion), 1 hour 5 minutes, 1 hour 10 minutes, 1 hour 15 minutes, 1.5, 2, 2.5, 3, 4, 6, 8, 12, 16, 24, 36 and 48 hours after the start of the infusion). An indwelling cannula (Venflon®; BOC Ohmeda AB, Sweden) was used for all blood collection pre-dose and up to at least 12 hours after the start of the infusion. Otherwise, samples were collected using venipuncture. Blood samples were collected into pre-chilled 3 mL K3EDTA Vacutainer™ tubes (Becton Dickinson UK, Ltd., Oxford) and, after mixing, were placed in a cool box containing crushed ice/water. The samples were centrifuged, within 30 minutes of collection, at 1500 g for 10 minutes at approximately 4° C. For each sample, the separated plasma was transferred into two 5 mL suitably labeled polypropylene tubes, and stored immediately at approximately −20° C. Plasma samples were analyzed for CR665 using liquid chromatography with tandem mass spectrometric detection.
The pharmacokinetic analysis was conducted using WinNonlin Enterprise Version 4.0.1.
Pharmacokinetic parameters were determined from the plasma and urine, concentrations of CR665 and the N-oxide metabolite using non compartmental procedures.
Dose and body weight normalized values (norm) were determined for AUC0-t, AUC0-∞, Cinf and Cmax. Body weight normalized values [norm] were determined for Vz, Vss, CL and CLR.
The pharmacokinetic analysis was conducted using model independent methods as implemented in WinNonlin software, based on plasma concentrations of CR665 from those subjects who have received CR665 and have evaluable plasma concentration-time profiles.
The following plasma pharmacokinetic parameters were determined for CR665: • Cmax Maximum plasma concentration • tmax Time of maximum plasma concentration • t1/2z Terminal half-life=ln(2)/λz • AUC0-1 Area under the plasma concentration-time curve from time zero to time t (time of last quantifiable plasma concentration) • AUCinf Area under the plasma concentration-time curve from time zero to infinity calculated as [AUC0-t+(Clast/λz)] where Clast is the estimated concentration at the last quantifiable concentration curve. • λz Terminal-phase rate constant, also known as Kel • CL Total body clearance=Dose/AUCinf • Vz Volume of distribution based on terminal phase calculated as Vz/F=Dose/λz*AUCinf
Individual elapsed sampling times were used in the pharmacokinetic analysis. Cmax and tmax were obtained directly from the experimental observations. For the purpose of calculating AUC0-t, when two consecutive plasma concentrations below the lower limit of quantification (LLOQ) were encountered after tmax, all subsequent values were excluded from the analysis.

[1] = 0.06 mg/kg, males, 5-minute IV infusion, geometric mean
[2] = 0.06 mg/kg, males, 1 hour IV infusion, geometric mean
[3] = 0.09 mg/kg, males, 5-minute IV infusion, geometric mean
[4] = 0.12 mg/kg, males, 1 hour IV infusion, geometric mean
[5] = 0.24 mg/kg, males, 1 hour IV infusion, geometric mean
[6] = 0.36 mg/kg, males, 1 hour IV infusion, geometric mean
[7] = 0.42 mg/kg, males, 1 hour IV infusion, geometric mean
[8] = 0.48 mg/kg, males, 1 hour IV infusion, geometric mean
[9] = males, all doses, 5-minute infusion

## CCCC[C@@H](NC(=O)[C@@H](Cc1ccccc1)NC(=O)[C@H](N)Cc1ccccc1)C(=O)N[C@H](CCCNC(=N)N)C(=O)NCc1ccncc1 [CR665, D-phenylalanyl-D-phenylalanyl-D-norleucyl-N-(4-pyridinylmethyl)-D-argininamide, acetate salt] (H-[dF][dF][dNle][dR]-{NH(4-picolyl)})
[1]
  AUC(0-inf): 142 ng·h/mL
  clearance: 553 mL/min
  Cmax: 624 ng/mL
  MRT: 30.1 min
[2]
  AUC(0-inf): 132 ng·h/mL
  clearance: 564 mL/min
  Cmax: 119 ng/mL
  MRT: 33.8 min
0.06 mg/kg, Vss, males, 0.06 mg/kg, 5-minute IV infusion, geometric mean
  Vd: 16.6 L
0.06 mg/kg, Vss, males, 0.06 mg/kg, 1 hour IV infusion, geometric mean
  Vd: 19 L
0.06 mg/kg, Vz, males, 5-minute IV infusion, geometric mean
  Vd: 48 L
0.06 mg/kg, Vz, males, 1 hour IV infusion, geometric mean
  Vd: 35.5 L
0.06 mg/kg, 5-minute IV infusion, geometric mean
  half-life: 60 min
0.06 mg/kg, 1 hour IV infusion, geometric mean
  half-life: 43.7 min
0.06 mg/kg, males, 5-minute IV infusion
  Tmax: 5 min
0.06 mg/kg, males, 1 hour IV infusion
  Tmax: 52.5 min
[3]
  AUC(0-t): 209 ng·h/mL
  AUC(0-inf): 213 ng·h/mL
  clearance: 575 mL/min
  Cmax: 783 ng/mL
  MRT: 32.2 min
0.09 mg/kg, Vss, males, 0.09 mg/kg, 5-minute IV infusion, geometric mean
  Vd: 18.5 L
0.09 mg/kg, Vz, males, 5-minute IV infusion, geometric mean
  Vd: 56.7 L
0.09 mg/kg, 5-minute IV infusion, geometric mean
  half-life: 68.4 min
0.09 mg/kg, males, 5-minute IV infusion
  Tmax: 5 min
[4]
  AUC(0-t): 267 ng·h/mL
  AUC(0-inf): 270 ng·h/mL
  clearance: 533 mL/min
  Cmax: 231 ng/mL
  MRT: 43.4 min
0.12 mg/kg, Vss, males, 0.12 mg/kg, 1 hour IV infusion, geometric mean
  Vd: 23.1 L
0.12 mg/kg, Vz, males, 1 hour IV infusion, geometric mean
  Vd: 75.9 L
0.12 mg/kg, 1 hour IV infusion, geometric mean
  half-life: 99 min
0.12 mg/kg, males, 1 hour IV infusion
  Tmax: 45 min
[5]
  AUC(0-t): 474 ng·h/mL
  AUC(0-inf): 478 ng·h/mL
  clearance: 629 mL/min
  Cmax: 431 ng/mL
  MRT: 36.8 min
0.24 mg/kg, Vss, males, 0.24 mg/kg, 1 hour IV infusion, geometric mean
  Vd: 23.2 L
0.24 mg/kg, Vz, males, 1 hour IV infusion, geometric mean
  Vd: 74.6 L
0.24 mg/kg, 1 hour IV infusion, geometric mean
  half-life: 82.2 min
0.24 mg/kg, males, 1 hour IV infusion
  Tmax: 60 min
[6]
  AUC(0-t): 808 ng·h/mL
  AUC(0-inf): 812 ng·h/mL
  clearance: 569 mL/min
  Cmax: 779 ng/mL
  MRT: 37.4 min
0.36 mg/kg, Vss, males, 0.36 mg/kg, 1 hour IV infusion, geometric mean
  Vd: 21.2 L
0.36 mg/kg, Vz, males, 1 hour IV infusion, geometric mean
  Vd: 80.6 L
0.36 mg/kg, 1 hour IV infusion, geometric mean
  half-life: 98.4 min
0.36 mg/kg, males, 1 hour IV infusion
  Tmax: 60 min
[7]
  AUC(0-t): 1080 ng·h/mL
  AUC(0-inf): 1080 ng·h/mL
  clearance: 504 mL/min
  Cmax: 943 ng/mL
  MRT: 37.1 min
0.42 mg/kg, Vss, males, 0.42 mg/kg, 1 hour IV infusion, geometric mean
  Vd: 18.7 L
0.42 mg/kg, Vz, males, 1 hour IV infusion, geometric mean
  Vd: 77.9 L
0.42 mg/kg, 1 hour IV infusion, geometric mean
  half-life: 107 min
0.42 mg/kg, males, 1 hour IV infusion
  Tmax: 60 min
[8]
  AUC(0-t): 1120 ng·h/mL
  AUC(0-inf): 1120 ng·h/mL
  clearance: 576 mL/min
  Cmax: 982 ng/mL
  MRT: 38.9 min
0.48 mg/kg, Vss, males, 0.48 mg/kg, 1 hour IV infusion, geometric mean
  Vd: 22.4 L
0.48 mg/kg, Vz, males, 1 hour IV infusion, geometric mean
  Vd: 93.3 L
0.48 mg/kg, 1 hour IV infusion, geometric mean
  half-life: 112 min
0.48 mg/kg, males, 1 hour IV infusion
  Tmax: 52.5 min
males
  AUC0-t (norm), ratio of geometric least squares means 5-minute:1-hour: 1.02
  AUC0-∞ (norm), ratio of geometric least squares means 5-minute:1-hour: 1.04
  CL, ratio of geometric least squares means 5-minute:1-hour: 0.964
  Cmax (norm), ratio of geometric least squares means 5-minute:1-hour: 4.49
  Cmax, fold higher for the 5-minute compared to the 1-hour infusion: approximately 4.5 fold
  MRTint, ratio of geometric least squares means 5-minute:1-hour: 0.923
  Vss, ratio of geometric least squares means 5-minute:1-hour: 0.900
  Vz, ratio of geometric least squares means 5-minute:1-hour: 1.03
  t1/2, ratio of geometric least squares means 5-minute:1-hour: 1.02
males, 0.24 mg/kg, 1 hour IV infusion, geometric mean
  MRTint: 36.8 min
males, 1-hour infusion
  MRTint, geometric least squares mean: 36.3 min
males, 5-minute infusion
  MRTint, geometric least squares mean: 33.5 min
[9]
  Pooled between-subject variability for AUC0-∞: 15.3%
  Pooled between-subject variability for Cmax: 24.1%
